test system: buckthorn or cotton aphid; assay: Buckthorn or cotton aphid foliar spray test; format: in vivo, Aphis nasturtii / Aphis gossypii; settings: Aphis gossypii; foliar application at 100 ppm; counted after one day (buckthorn aphid) or three days (cotton aphid); read-out: pest mortality BA*/CA
Protocol: (§1) For mite, aphid, southern armyworm, Mexican bean beetle, and tobacco budworm tests, a solution or suspension was prepared by adding 10 mg of the test compound to a solution of 160 mg of dimethylformamide, 838 mg of acetone, 2 mg of a 3:1 ratio of Triton X-172 : Triton X-152 (respectively, mainly anionic and nonionic low foam emulsifiers which are each anhydrous blends of alkylaryl polyether alcohols with organic sulfonates), and […] of water. The result was a concentration of 100 ppm of the test compound.
Buckthorn or cotton aphid: Adult and nymphal stages of buckthorn or cotton aphid were reared on potted dwarf nasturtium or cotton plants, respectively. The potted plants (one pot per compound tested) infested with 100-150 aphids, were placed on a revolving turntable and sprayed with 100 ml of the 100 ppm test compound formulation by use of a DeVilbiss spray gun set at 40 psig air pressure. As an untreated control, 100 ml of a water-acetone-DMF-emulsifier solution, containing no test compound, were also sprayed on infested plants. A treated control with a commercial technical compound, malathion or cyhalothrin, formulated in the same manner, was tested as a standard. After spraying, the pots were stored for one day on buckthorn aphid or three days for cotton aphid, after which the dead aphids were counted.

| SMILES | mortality at 100 ppm |
| --- | --- |
| CCOCC(=O)Nc1c(SC(F)(F)F)c(C#N)nn1-c1c(Cl)cc(C(F)(F)F)cc1Cl [Compound 2] | 70 to 100% |
| COCCOCC(=O)Nc1c(S(=O)(=O)C(F)(F)F)c(C#N)nn1-c1c(Cl)cc(C(F)(F)F)cc1Cl [Compound 13] | 70 to 100% |
| COC(C(=O)Nc1c(SC(F)(F)F)c(C#N)nn1-c1c(Cl)cc(C(F)(F)F)cc1Cl)c1ccccc1 (stereo not shown) [Compound 22] | 70 to 100% |
| COC(C)C(=O)Nc1c(S(=O)(=O)C(F)(F)F)c(C#N)nn1-c1c(Cl)cc(C(F)(F)F)cc1Cl (stereo not shown) [Compound 25] | 70 to 100% |
| COCC(=O)Nc1c(S(=O)(=O)C(F)(F)F)c(C#N)nn1-c1ncc(C(F)(F)F)cc1Cl [Compound 50] | 70 to 100% |

test system: southern armyworm; assay: Southern armyworm foliar spray test on bean plants; format: in vivo; settings: Spodoptera eridania, 120 h; foliar application at 100 ppm; second instar larvae, held five days; read-out: pest mortality SAW
Protocol: as §1
(§2) Southern armyworm: Potted bean plants, were placed on a revolving turntable and sprayed with 100 ml of the 100 ppm test compound formulation by use of a DeVilbiss spray gun set at 40 psig air pressure. As an untreated control, 100 ml of a water-acetone-DMF-emulsifier solution, containing no test compound, were also sprayed on plants. A treated control with a commercial technical compound, either cypermethrin or sulprofos, formulated in the same manner, was tested as a standard. When dry, the leaves were placed in plastic cups lined with moistened filter paper. Five randomly selected second instar southern armyworm larvae were introduced into each cup which was closed and held for five days. Larvae which were unable to move the length of the body, even upon stimulation by prodding, were considered dead.

| SMILES | mortality at 100 ppm |
| --- | --- |
| CCOCC(=O)Nc1c(SC(F)(F)F)c(C#N)nn1-c1c(Cl)cc(C(F)(F)F)cc1Cl [Compound 2] | 70 to 100% |
| COCC(=O)Nc1c([S+]([O-])C(F)(F)F)c(C#N)nn1-c1c(Cl)cc(C(F)(F)F)cc1Cl (stereo not shown) [Compound 7] | 70 to 100% |
| CCOCC(=O)Nc1c([S+]([O-])C(F)(F)F)c(C#N)nn1-c1c(Cl)cc(C(F)(F)F)cc1Cl (stereo not shown) [Compound 8] | 70 to 100% |
| COCCOCC(=O)Nc1c([S+]([O-])C(F)(F)F)c(C#N)nn1-c1c(Cl)cc(C(F)(F)F)cc1Cl (stereo not shown) [Compound 9] | 70 to 100% |
| COCC(=O)Nc1c(S(=O)(=O)C(F)(F)F)c(C#N)nn1-c1c(Cl)cc(C(F)(F)F)cc1Cl [Compound 11] | 70 to 100% |
| COCCOCC(=O)Nc1c(S(=O)(=O)C(F)(F)F)c(C#N)nn1-c1c(Cl)cc(C(F)(F)F)cc1Cl [Compound 13] | 70 to 100% |
| COC(C(=O)Nc1c(SC(F)(F)F)c(C#N)nn1-c1c(Cl)cc(C(F)(F)F)cc1Cl)c1ccccc1 (stereo not shown) [Compound 22] | 70 to 100% |
| COC(C)C(=O)Nc1c(S(=O)(=O)C(F)(F)F)c(C#N)nn1-c1c(Cl)cc(C(F)(F)F)cc1Cl (stereo not shown) [Compound 25] | 70 to 100% |
| COCC(=O)Nc1c(S(=O)(=O)C(F)(F)F)c(C#N)nn1-c1ncc(C(F)(F)F)cc1Cl [Compound 50] | 70 to 100% |

test system: Mexican bean beetle; assay: Mexican bean beetle foliar spray test on bean plants; format: in vivo; settings: Epilachna varivestis, 120 h; foliar application at 100 ppm; second instar larvae, held five days; read-out: pest mortality MBB
Protocol: as §1
as §2, with “Mexican bean beetle:” for “Southern armyworm:”, “plants” for “plants,”, “formulation, sufficient to wet the plants to runoff,” for “formulation”, “Mexican bean beetle” for “southern armyworm”

| SMILES | mortality at 100 ppm |
| --- | --- |
| CCOCC(=O)Nc1c(SC(F)(F)F)c(C#N)nn1-c1c(Cl)cc(C(F)(F)F)cc1Cl [Compound 2] | 70 to 100% |
| COCC(=O)Nc1c([S+]([O-])C(F)(F)F)c(C#N)nn1-c1c(Cl)cc(C(F)(F)F)cc1Cl (stereo not shown) [Compound 7] | 70 to 100% |
| CCOCC(=O)Nc1c([S+]([O-])C(F)(F)F)c(C#N)nn1-c1c(Cl)cc(C(F)(F)F)cc1Cl (stereo not shown) [Compound 8] | 70 to 100% |
| COCCOCC(=O)Nc1c([S+]([O-])C(F)(F)F)c(C#N)nn1-c1c(Cl)cc(C(F)(F)F)cc1Cl (stereo not shown) [Compound 9] | 70 to 100% |
| COCC(=O)Nc1c(S(=O)(=O)C(F)(F)F)c(C#N)nn1-c1c(Cl)cc(C(F)(F)F)cc1Cl [Compound 11] | 70 to 100% |
| COC(C)C(=O)Nc1c(S(=O)(=O)C(F)(F)F)c(C#N)nn1-c1c(Cl)cc(C(F)(F)F)cc1Cl (stereo not shown) [Compound 25] | 70 to 100% |

test system: housefly; assay: House fly bait test; format: in vivo; settings: Musca domestica; bait application at 100 ppm; adult flies, after 24 hours; read-out: pest mortality HF
Description: For housefly tests, the formulation was initially prepared in a similar manner to the above, but in 16.3 g of water with corresponding adjustment of other components, providing a 200 ppm concentration. Final dilution with an equal volume of a 20% by weight aqueous solution of sucrose provided a 100 ppm concentration of the test compound. When necessary, sonication was provided to insure complete dispersion.
House fly: Four to six day old adult house flies were reared according to the specifications of the Chemical Specialties Manufacturing Association (Blue Book, McNair-Dorland Co., N.Y. 1954; pages 243-244, 261) under controlled conditions. The flies were immobilized by anesthetizing with carbon dioxide and twenty five immobilized individuals, males and females, were transferred to a cage consisting of a standard food strainer and a wrapping-paper-covered surface. Ten ml of the 100 ppm test compound formulation were added to a soufflé cup containing an absorbent cotton pad. As an untreated control, 10 ml of a water-acetone-DMF-emulsifier-sucrose solution, containing no test compound, were applied in a similar manner. A treated control with a commercial technical compound, malathion, formulated in the same manner, was tested as a standard. The bait cup was introduced inside the food strainer prior to admitting the anesthetized flies.

| SMILES | mortality at 100 ppm |
| --- | --- |
| CCOCC(=O)Nc1c(SC(F)(F)F)c(C#N)nn1-c1c(Cl)cc(C(F)(F)F)cc1Cl [Compound 2] | 70 to 100% |
| COCC(=O)Nc1c([S+]([O-])C(F)(F)F)c(C#N)nn1-c1c(Cl)cc(C(F)(F)F)cc1Cl (stereo not shown) [Compound 7] | 70 to 100% |
| CCOCC(=O)Nc1c([S+]([O-])C(F)(F)F)c(C#N)nn1-c1c(Cl)cc(C(F)(F)F)cc1Cl (stereo not shown) [Compound 8] | 70 to 100% |
| COCCOCC(=O)Nc1c([S+]([O-])C(F)(F)F)c(C#N)nn1-c1c(Cl)cc(C(F)(F)F)cc1Cl (stereo not shown) [Compound 9] | 70 to 100% |
| COCC(=O)Nc1c(S(=O)(=O)C(F)(F)F)c(C#N)nn1-c1c(Cl)cc(C(F)(F)F)cc1Cl [Compound 11] | 70 to 100% |
| COC(C(=O)Nc1c(SC(F)(F)F)c(C#N)nn1-c1c(Cl)cc(C(F)(F)F)cc1Cl)c1ccccc1 (stereo not shown) [Compound 22] | 70 to 100% |
| COC(C)C(=O)Nc1c(S(=O)(=O)C(F)(F)F)c(C#N)nn1-c1c(Cl)cc(C(F)(F)F)cc1Cl (stereo not shown) [Compound 25] | 70 to 100% |
| COCC(=O)Nc1c(S(=O)(=O)C(F)(F)F)c(C#N)nn1-c1ncc(C(F)(F)F)cc1Cl [Compound 50] | 70 to 100% |

test system: tobacco budworm; assay: Tobacco budworm foliar spray test on cotton plants; format: in vivo; settings: Heliothis virescens, 120 h; foliar application at 100 ppm; second instar larvae, held five days; read-out: pest mortality TBW
Protocol: as §1
Tobacco budworm: Potted cotton plants were placed on a revolving turntable and sprayed with 100 ml of the 100 ppm test compound formulation by use of a DeVilbiss spray gun set at 40 psig air pressure. As an untreated control, 100 ml of a water-acetone-DMF-emulsifier solution, containing no test compound, were also sprayed on plants. A treated control with a commercial technical compound, either cypermethrin or sulprofos, formulated in the same manner, was tested as a standard. When dry, the leaves were placed in plastic dishes containing a piece of filter paper and a moistened dental wick. One randomly selected second instar tobacco budworm larva was then introduced into each cup which was closed and held for five days. Larvae unable to move the length of their body, even upon stimulation by prodding, were considered dead.

| SMILES | mortality at 100 ppm |
| --- | --- |
| CCOCC(=O)Nc1c(SC(F)(F)F)c(C#N)nn1-c1c(Cl)cc(C(F)(F)F)cc1Cl [Compound 2] | 70 to 100% |
| COCC(=O)Nc1c([S+]([O-])C(F)(F)F)c(C#N)nn1-c1c(Cl)cc(C(F)(F)F)cc1Cl (stereo not shown) [Compound 7] | 70 to 100% |
| CCOCC(=O)Nc1c([S+]([O-])C(F)(F)F)c(C#N)nn1-c1c(Cl)cc(C(F)(F)F)cc1Cl (stereo not shown) [Compound 8] | 70 to 100% |
| COCCOCC(=O)Nc1c([S+]([O-])C(F)(F)F)c(C#N)nn1-c1c(Cl)cc(C(F)(F)F)cc1Cl (stereo not shown) [Compound 9] | 70 to 100% |
| COC(C(=O)Nc1c(SC(F)(F)F)c(C#N)nn1-c1c(Cl)cc(C(F)(F)F)cc1Cl)c1ccccc1 (stereo not shown) [Compound 22] | 70 to 100% |

test system: southern root-knot nematode; assay: Southern root-knot nematode soil test on tomato; format: in vivo; design: dose or concentration left out as unconfirmed; settings: Meloidogyne incognita; Soil Conc. at 21 Kg/ha; second stage juveniles; read-out: pest mortality Nema (J2)
Protocol: For southern root-knot nematode and systemic tests for southern armyworm, cotton aphid, tobacco budworm and greenbug, a stock solution or suspension was prepared by adding 15 mg of the test compound to 250 mg of dimethylformamide, 1250 mg of acetone and 3 mg of the emulsifier blend referenced above. Water was then added to provide a test compound concentration of 150 ppm. When necessary, sonication was provided to insure complete dispersion.
Southern root-knot nematode: Infected roots of tomato plants, containing egg masses of southern root-knot nematode, were removed from a stock culture and cleaned of soil by shaking and washing with tap water. The nematode eggs were separated from the root tissue and rinsed with water. Samples of the egg suspension were placed on a fine screen over a receiving bowl, in which the water level was adjusted to be in contact with the screen. From the bowl, juveniles were collected on a fine screen. The bottom of a cone-shaped container was plugged with coarse vermiculite and then filled to within 1.5 cm of the top with about a 200 ml volume of pasteurized soil. Then into a hole made in the center of the soil in the cone was pipetted an aliquot of the 150 ppm test compound formulation. A treated control with a commercial technical compound, fenamifos, formulated in a similar manner, was tested as a standard. As an untreated control, an aliquot of a water-acetone-DMF-emulsifier solution, containing no test compound, was applied in a similar manner. Immediately after treatment of the soil with the test compound there were added to the top of each cone 1000 second stage juvenile southern root-knot nematodes. After 3 days, a single healthy tomato seedling was then transplanted into the cone. The cone, containing the infested soil and tomato seedling, was kept in the greenhouse for 3 weeks. At the termination of the test, […], […]

| SMILES | mortality |
| --- | --- |
| COCC(=O)Nc1c([S+]([O-])C(F)(F)F)c(C#N)nn1-c1c(Cl)cc(C(F)(F)F)cc1Cl (stereo not shown) [Compound 7] | 70 to 100% |
| CCOCC(=O)Nc1c([S+]([O-])C(F)(F)F)c(C#N)nn1-c1c(Cl)cc(C(F)(F)F)cc1Cl (stereo not shown) [Compound 8] | 70 to 100% |
| COCCOCC(=O)Nc1c([S+]([O-])C(F)(F)F)c(C#N)nn1-c1c(Cl)cc(C(F)(F)F)cc1Cl (stereo not shown) [Compound 9] | 70 to 100% |
| COCC(=O)Nc1c(S(=O)(=O)C(F)(F)F)c(C#N)nn1-c1c(Cl)cc(C(F)(F)F)cc1Cl [Compound 11] | 70 to 100% |
| COCCOCC(=O)Nc1c(S(=O)(=O)C(F)(F)F)c(C#N)nn1-c1c(Cl)cc(C(F)(F)F)cc1Cl [Compound 13] | 70 to 100% |
| COC(C)C(=O)Nc1c(S(=O)(=O)C(F)(F)F)c(C#N)nn1-c1c(Cl)cc(C(F)(F)F)cc1Cl (stereo not shown) [Compound 25] | 70 to 100% |
| COCC(=O)Nc1c(S(=O)(=O)C(F)(F)F)c(C#N)nn1-c1ncc(C(F)(F)F)cc1Cl [Compound 50] | 70 to 100% |

Source: patent publication EP0811615A1, “1-Aryl-5-(substituted alkyl (thio) amido) pyrazoles and their use as pesticides” (RHONE-POULENC AGROCHIMIE, priority 1996, dated 1997)
